Read-outs that look alike come from different tables or passages of the source.
Columns and labels:
[1] = tested on: IGROV1-T8, a cell line selected for resistance to topotecan (increased BCRP expression); assay: cells; conditions: Homo sapiens
Protocol: (§1) The T8 resistant cell line has been characterized with over-expression of the multidrug resistant protein BCRP (breast cancer resistance protein). Topotecan, which is a known substrate for BCRP, was used as a control.
(§2) Sulforhodamine-B (SRB) assay is performed to assess cell survival. SRB is a water-soluble dye that binds to the basic amino acids of the cellular proteins. Thus, colorimetric measurement of the bound dye provides an estimate of the total protein mass that is related to the cell number. The color can then be quantified using a simple colorimetric assay. The results can be read on a multiwell scanning spectrophotometer (ELISA reader).

Pgp, MRP-1 or BCRP [2] = assay: Resistance Modifying Factors in three pairs of parental and resistant cell lines; type: cell-based, human; conditions: IC50 resistant without modulator / with modulator
Protocol: The Resistance Modifying Factors were calculated as IC50 of the resistant cell line in the absence of modulator/IC50 of the resistant cell line in the presence of modulator.

[3] = tested on: K562 (human leukemia) cell lines and a K562 cell line selected for resistance to daunorubicin; assay: MTS cell proliferation assay, K562 and K562 resistant cell lines; type: cell-based
From the text: MTS assay is an assay in which the bioreduction of the MTS reagent (3-(4,5-dimethylthiazol-2-yl)-5-(3-carboxymethoxyphenyl)-2-(4-sulfophenyl)-2H-tetrazolium)) by cells is being measured to assess metabolic activity of cells is based on the ability of a mitochondrial dehydrogenase enzyme from viable cells to cleave the tetrazolium rings of the MTS and form formazan crystals which are largely impermeable to cell membranes, thus resulting in its accumulation within healthy cells. Solubilization of the cells by the addition of a detergent results in the liberation of the crystals which are solubilized. The number of surviving cells is directly proportional to the level of the formazan product created. The color can then be quantified using a simple colorimetric assay. The results can be read on a multiwell scanning spectrophotometer (ELISA reader).

[4] = tested on: HL60/VCR cells (Pgp positive); assay: Drug accumulation assay, HL60/VCR; type: cell-based, human
Protocol: (§3) Functional expression analyses of Pgp were performed on a BD FACSCalibur flow cytometer (Franklin Lakes, N.J.). […] Data analysis was performed using the Dako Cytomation Summit software, version 4.0 (Fort Collins, Colo.).

Caco-2 cell monolayers [5] = assay: Caco-2 cell monolayer permeability
Protocol: (§4) Caco-2 cell permeability studies were performed using Caco-2 cell monolayers grown on microporous membranes in multiwell insert systems. […] The samples were analyzed using LC/MS detection. […] This is the slope of the basolateral concentration versus time curve divided by the concentration of compound in the apical dosing chamber and the total area of the Caco-2 cell monolayer.

[6] = tested on: HL60/ADR, a cell line selected for resistance to adriamycin (MRP-1); assay: WST-1 cell proliferation assay, HL60/ADR
Protocol: The HL60/ADR resistant cell line has been characterized with over-expression of the multidrug resistant protein (MRP-1).
(§5) WST-1 is a water-soluble tetrazolium salt that can be used for cell proliferation or cell viability assays. The rate of WST-1 cleavage by mitochondrial dehydrogenases correlates with the number of viable cells in the culture. WST-1 is added directly to the cells ( 1/10th of the culture volume) and absorbance at 450 nm can be measured using an ELISA plate reader following a short incubation at 37° C.

[7] = tested on: MCF7 (human breast cancer) cell lines and a MCF7 cell line selected for resistance to doxorubicin; conditions: clonogenic
Protocol: The MCF7 resistant cell line has been characterized with over-expression of the multidrug resistant protein (MDR; p-glycoprotein).
In the clonogenic assay cells are treated in vitro and then suspended in a soft agar/cell media mixture. The cells are allowed to grow in definable and distinct clumps of cells, referred to as clones, based upon the survival of the cells originally treated. After a defined time span the number of clones is then counted by microscope.

P-gp [8] = assay: in vitro; conditions: human
Protocol: as §4

[9] = tested on: P388 (murine leukemia) cell lines and a P388 cell line selected for resistance to doxorubicin; conditions: MTT
From the text: The P388 resistant cell line has been characterized with over-expression of the multidrug resistant protein (MDR; p-glycoprotein).
MTT [3-(4,5-dimethylthiazol-2-yl)-2,5-diphenyltetrazolium bromide] assay, first described by Mosmann in 1983, is based on the ability of a mitochondrial dehydrogenase enzyme from viable cells to cleave the tetrazolium rings of the pale yellow MTT and form a dark blue formazan crystals which is largely impermeable to cell membranes, thus resulting in its accumulation within healthy cells. Solubilization of the cells by the addition of a detergent results in the liberation of the crystals which are solubilized. The number of surviving cells is directly proportional to the level of the formazan product created. The color can then be quantified using a simple colorimetric assay. The results can be read on a multiwell scanning spectrophotometer (ELISA reader).

[10] = tested on: K562-K562/DOX cells (Pgp negative and Pgp positive); assay: Drug accumulation assay, amonafide retention in K562 and K562/DOX; type: cell-based, human
Protocol: Functional expression analyses of Pgp were performed on a BD FACSCalibur flow cytometer (Franklin Lakes, N.J.). […] Data analysis was performed using the Dako Cytomation Summit software, version 4.0 (Fort Collins, Colo.). […] Differential Pgp staining of anti-Pgp treated cells was compared to that of control cells counted with the same number of gated events. All test samples were compared to their respective controls using Kolmogorov-Smirnov (KS) non-parametric statistics and expressed as D-values ranging from 0 to 1. These analyses were performed using the NCSS 2007 software (Kaysville, Utah). This approach addresses the maximum difference between two empirical distribution functions.

[11] = tested on: 8226/MR20, a cell line selected for resistance to mitoxantrone (BCRP); assay: WST-1 cell proliferation assay, 8226/MR20
Protocol: The 8226/MR20 resistant cell line has been characterized with over-expression of the multidrug resistant protein (BCRP).
BCRP surface expression was measured by flow cytometry with the BXP21 antibody.
as §5

[12] = tested on: IGROV1 (human ovarian) cell line; assay: SRB cell proliferation assay, IGROV1; type: cell-based
Protocol: as §1, §2

Pgp [13] = molecular target: T1, Pgp (Homo sapiens, UniProt P08183); conditions: digoxin + test compound
T1 sequence (P08183 whole entry): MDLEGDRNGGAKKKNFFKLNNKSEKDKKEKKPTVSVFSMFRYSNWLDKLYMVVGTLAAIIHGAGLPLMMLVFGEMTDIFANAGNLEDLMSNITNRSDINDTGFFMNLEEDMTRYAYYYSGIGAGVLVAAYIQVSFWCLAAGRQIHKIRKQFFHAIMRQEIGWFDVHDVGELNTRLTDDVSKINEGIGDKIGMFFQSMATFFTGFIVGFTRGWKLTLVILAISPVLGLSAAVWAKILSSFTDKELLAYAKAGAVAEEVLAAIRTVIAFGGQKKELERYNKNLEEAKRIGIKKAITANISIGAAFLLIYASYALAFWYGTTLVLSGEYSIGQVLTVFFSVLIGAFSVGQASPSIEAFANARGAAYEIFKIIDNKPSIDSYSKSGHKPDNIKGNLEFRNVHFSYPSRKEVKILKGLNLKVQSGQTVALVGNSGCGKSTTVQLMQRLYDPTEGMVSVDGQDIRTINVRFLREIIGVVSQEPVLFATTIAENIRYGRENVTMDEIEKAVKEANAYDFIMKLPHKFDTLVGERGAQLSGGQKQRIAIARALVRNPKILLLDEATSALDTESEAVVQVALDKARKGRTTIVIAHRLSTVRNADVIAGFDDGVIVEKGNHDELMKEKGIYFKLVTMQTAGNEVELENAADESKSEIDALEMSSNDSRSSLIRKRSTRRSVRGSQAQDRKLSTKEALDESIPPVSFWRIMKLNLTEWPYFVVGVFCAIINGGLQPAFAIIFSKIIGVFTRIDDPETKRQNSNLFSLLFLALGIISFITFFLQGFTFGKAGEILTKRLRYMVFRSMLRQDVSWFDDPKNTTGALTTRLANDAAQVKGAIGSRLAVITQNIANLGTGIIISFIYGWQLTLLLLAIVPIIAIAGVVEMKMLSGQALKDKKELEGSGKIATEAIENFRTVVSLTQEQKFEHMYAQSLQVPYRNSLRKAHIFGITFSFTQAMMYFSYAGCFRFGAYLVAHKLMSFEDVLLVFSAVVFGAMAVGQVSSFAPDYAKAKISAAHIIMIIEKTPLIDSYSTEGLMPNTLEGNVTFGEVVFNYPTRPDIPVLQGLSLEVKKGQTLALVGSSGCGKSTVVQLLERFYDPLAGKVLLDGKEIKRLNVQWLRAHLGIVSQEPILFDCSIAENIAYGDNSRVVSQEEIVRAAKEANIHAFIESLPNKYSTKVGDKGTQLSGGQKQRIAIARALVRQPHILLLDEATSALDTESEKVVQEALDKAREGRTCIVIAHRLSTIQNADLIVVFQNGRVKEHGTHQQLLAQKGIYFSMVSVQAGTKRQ
From the text: (§6) MDR1-MDCK are Madin Darby Canine Kidney cells transfected with the human multi-drug resistance gene. Confluent monolayers made from these cells can be used to access a test compound's potential role as a P-gp substrate. The assay set up is similar to the CaCo-2 assay.
(§7) Both the Caco-2 and MDR1-MDCK cells were used for this model.

[14] = tested on: HL60 (human promyelocytic leukemia) cells; assay: WST-1 cell proliferation assay, HL60; type: cell-based; conditions: HL-60, wild-type HL60, WST-1, read-out: IC50 HL60
Protocol: (§8) The HL60NCR resistant cell line has been characterized with over-expression of the multidrug resistant protein (MDR; p-glycoprotein). The over-expression ratio (level of MDR in resistant cell line over level of MDR in the parental cell line) is 8 fold with a 10 fold increase in pgp function. Pgp surface expression was measured by flow cytometry with the MRK16 antibody and Pgp function with the generic substrate, Rh123.
as §5

Caco-2 cell monolayers [15] = conditions: human, Caco-2, 120 min, 5 μM
Protocol: as §4

[16] = tested on: HL60/VCR (HL60/MDR), a cell line selected for resistance to vincristine; assay: WST-1 cell proliferation assay, HL60/VCR
Protocol: as §8, §5

Pgp [17] = molecular target: T1, Pgp
From the text: as §7

[18] = tested on: HL60 cells (Pgp negative); assay: Drug accumulation assay, HL60; type: cell-based, human; conditions: HL60, increasing concentrations of amonafide
Protocol: as §3

[19] = tested on: HL60/ADR cells (MRP-1 positive); assay: Drug accumulation assay, HL60/ADR; type: cell-based, human
Protocol: Following uptake, the cells were washed with PBS and resuspended in fresh medium. An aliquot of cells from each sample was placed on ice for quantitation of baseline drug uptake. The remaining cells were incubated further and then resuspended in chilled fresh medium, and placed on ice for immediate flow cytometric analysis.
Functional expression analyses of MRP-1 were performed on a BD FACSCalibur flow cytometer (Franklin Lakes, N.J.). Cellular amonafide content was measured on the Cytopeia Influx flow cytometer (Seattle, Wash.). Data analysis was performed using the Dako Cytomation Summit software, version 4.0 (Fort Collins, Colo.).

[20] = tested on: pretreatment secondary AML patient cells; assay: Amonafide and daunorubicin efflux in cryopreserved cells of patients treated with amonafide+cytarabine; type: cell-based, human; conditions: cells from 15 patients treated with amonafide+cytarabine
Protocol: Cryopreserved cells were tested for viability and samples with viabilities less than 40% were considered inevaluable and discarded.
To measure drug uptake, the substrates were incubated with cells in medium containing each drug alone, or in combination with the modulator at the desired final concentrations. Cells were then washed and resuspended in PBS, and placed on ice. Drug-associated fluorescence was measured by flow cytometry using a FacScan flow cytometer (Becton Dickinson Immunocytometry Systems, San Jose, Calif.) equipped in standard fashion with an Argon laser for 488 nm excitation and a 585/42 band-pass filter (FL2) or a 670 long-pass (FL3) filter for emission collection. Data were analyzed with WinList software (Verity Software House, Topsham, Me.).

P-gp [21] = assay: in vitro; conditions: human, MDCK-MDR1, efflux/influx ratio, Drug alone
Protocol: as §6
(§9) The samples were analyzed using LC/MS detection.

[22] = tested on: 8226/MR20 cells (BCRP positive); assay: Drug accumulation assay, 8226/MR20; type: cell-based, human; conditions: 8226/MR20 ± FTC
Protocol: Functional expression analyses of BCRP were performed on a BD FACSCalibur flow cytometer (Franklin Lakes, N.J.). […] Data analysis was performed using the Dako Cytomation Summit software, version 4.0 (Fort Collins, Colo.).

Pgp, MRP-1 or BCRP [23] = assay: Resistance Ratios in three pairs of parental and resistant cell lines; type: cell-based, human; conditions: IC50 resistant / IC50 parental; HL60-HL60VCR, HL60-HL60ADR, 8226-8226/MR20
Protocol: The Resistance Ratios were calculated as IC50 of the resistant cell line/IC50 of the parental cell line.

Protocol for MDR1-MDCK cells (P-gp): as §6, §9

Compound: CN(C)CCN1C(=O)c2cccc3cc(N)cc(c23)C1=O [Amonafide, amonafide]
- IC50 ([1]; T8, experiment (1)): 5.18 µM
- IC50 ([1]; T8, experiment (2)): 4.87 µM
- IC50 ([1]; T8, experiment (3)): 5.83 µM
- IC50 ([1]; read-out: IC50 (average), T8, average): 5.29 µM
- substrate status from Resistance Modifying Factors (Pgp, MRP-1 or BCRP [2]): not a substrate for Pgp, MRP-1 or BCRP
- potency in resistant vs non-resistant cell line [3]: equipotent in both cell lines
- Amonafide uptake and efflux in presence of Pgp inhibitor PSC833 [4]: did not significantly change
- effect of addition of CSA on efflux (Caco-2 cell monolayers [5]; Caco-2): did not have any effect
- efflux classification (Caco-2 cell monolayers [5]; high efflux if ratio ≧3.0 and Papp(B-A) ≧1.0×10^−6 cm/s): not having significant efflux
- cytotoxicity in presence of MRP1 inhibitor MK571 ([6]; HL60/ADR ± MK571): unaffected
- potency in both cell lines ([6]; HL60 vs HL60/ADR): equipotent in both cell lines
- potency in resistant vs non-resistant cell line [7]: equipotent in both cell lines
- Papp B→A at 120 min, 5 μM (P-gp [8]; Caco-2): 26.8 ×10⁻⁶ cm/s
- efflux ratio at 120 min, 5 μM (P-gp [8]; Caco-2, efflux/influx ratio, Caco-2, +CSA): 1.1 ± 0.4
- efflux ratio at 120 min, 5 μM (P-gp [8]; Caco-2, efflux/influx ratio, Caco-2, Drug alone): 0.9 ± 0.2
- efflux ratio at 120 min, 5 μM (P-gp [8]; Caco-2, ratio of Papp(B-A)/Papp(A-B)): 1
- potency in resistant vs non-resistant cell line [9]: equipotent in both cell lines
- Amonafide uptake and efflux, comparison of the two cell lines ([10]; K562 vs K562/DOX): not significantly different between the two cell lines
- amonafide content in presence of Pgp inhibitor PKC412 ([10]; each cell line ± PKC412): did not significantly change
- cytotoxicity in presence of BCRP inhibitor Fumitremorgin C ([11]; 8226/MR20 ± Fumitremorgin C): unaffected
- potency in both cell lines ([11]; 8226 vs 8226/MR20): equipotent in both cell lines
- IC50 ([12]; IGROV-1, IGROV1, average, read-out: IC50 (average)): 2.93 µM
- IC50 ([12]; IGROV-1, IGROV1, experiment (1), read-out: IC50): 2.54 µM
- IC50 ([12]; IGROV-1, IGROV1, experiment (2), read-out: IC50): 3.73 µM
- IC50 ([12]; IGROV-1, IGROV1, experiment (3), read-out: IC50): 2.53 µM
- % Inhib. of control, digoxin efflux, MDR1-MDCK (Pgp [13]): 10%
- IC50 [14]: 6.98 µM
- efflux/influx ratio, Caco-2, Drug alone (Caco-2 cell monolayers [15]): 0.9
- efflux/influx ratio, MDR1-MDCK, +CSA (MDR1-MDCK cells (P-gp); +CSA): 1.2 ± 0.8
- efflux/influx ratio, MDR1-MDCK, Drug alone (MDR1-MDCK cells (P-gp); Drug alone): 2.2
- effect of addition of CSA on efflux (MDR1-MDCK cells (P-gp); MDR1-MDCK): did not have any effect
- Pgp substrate / inhibitor status (conclusion) (MDR1-MDCK cells (P-gp); conclusion from Caco-2 and MDR1-MDCK studies): neither a substrate nor an inhibitor of Pgp
- Fold Change in IC50 ([16]; HL60/MDR vs HL60): 0.29
- cytotoxicity in presence of Pgp inhibitor PSC833 ([16]; HL60/VCR ± PSC833): unaffected
- potency in both cell lines ([16]; HL60 vs HL60/VCR): equipotent in both cell lines
- IC50 ([16]; Homo sapiens, HL60/VCR, read-out: IC50 HL60/MDR): 2.04 µM
- effect on digoxin efflux (Pgp [17]; Caco-2): no effect
- % Inhib. of control, digoxin efflux, Caco-2 (Pgp [17]; digoxin + test compound): 0%
- amonafide accumulation [18]: increases with increasing amonafide dose
- Amonafide uptake and efflux in presence of MRP-1 inhibitor MK571 [19]: did not significantly change
- drug efflux in relation to clinical response (CR vs non-CR) [20]: no significant difference
- efflux ratio at 120 min, 5 μM (P-gp [21]): 2.2 ± 0.8
- Amonafide uptake and efflux in presence of BCRP inhibitor FTC [22]: did not significantly change
- substrate status from Resistance Ratios (Pgp, MRP-1 or BCRP [23]): not a substrate for Pgp, MRP-1 or BCRP

— patent US20100204263A1, “METHOD OF TREATING MULTIDRUG RESISTANT CANCERS” (priority 2007, published 2010)
